From US10759751B2, “Substituted spirocyclohexanes as muscarinic M1 receptor and/or M4 receptor agonists” (Heptares Therapeutics Limited, priority 2016, dated 2020)

Columns and labels:
[1] = biological target: T1, human muscarinic M1 receptor (Homo sapiens, UniProt P11229); assay: Alphascreen Surefire phospho-ERK1/2 functional assay, M1; assay type: cell-based; details: for M1 % Emax cf. ACh / EC50: CHO cells stably expressing human M1; for M1 % Emax cf. ACh / Emax: Emax relative to ACh; for EC50: phospho-ERK1/2, read-out: pEC50 M1 (converted); for Emax: CHO, read-out: M1 % Emax cf. ACh, CHO cells stably expressing human M1; for selectivity for the M1 receptor relative to the M4 receptor: M1 versus M4, in words
T1 sequence (P11229 1-460): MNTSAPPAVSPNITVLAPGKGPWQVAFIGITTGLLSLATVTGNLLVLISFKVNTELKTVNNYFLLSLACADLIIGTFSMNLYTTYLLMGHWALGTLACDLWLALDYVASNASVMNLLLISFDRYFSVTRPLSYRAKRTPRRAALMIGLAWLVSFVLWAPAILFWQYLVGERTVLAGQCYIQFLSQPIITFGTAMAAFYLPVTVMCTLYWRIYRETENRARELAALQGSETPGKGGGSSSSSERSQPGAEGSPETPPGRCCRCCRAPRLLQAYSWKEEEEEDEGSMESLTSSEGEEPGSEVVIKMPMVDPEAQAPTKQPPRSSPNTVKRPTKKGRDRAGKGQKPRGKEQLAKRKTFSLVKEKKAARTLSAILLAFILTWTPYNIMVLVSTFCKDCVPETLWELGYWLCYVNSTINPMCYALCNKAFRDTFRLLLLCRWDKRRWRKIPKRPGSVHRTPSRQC
Protocol: (§1) Functional assays were performed using the Alphascreen Surefire phospho-ERK1/2 assay (Crouch & Osmond, Comb. Chem. High Throughput Screen, 2008). ERK1/2 phosphorylation is a downstream consequence of both Gq/11 and Gi/o protein coupled receptor activation, making it highly suitable for the assessment of M1, M3 (Gq/11 coupled) and M2, M4 receptors (Gi/o coupled), rather than using different assay formats for different receptor subtypes. CHO cells stably expressing the human muscarinic M1, M2, M3 or M4 receptor were plated (25K/well) onto 96-well tissue culture plates in MEM-alpha+10% dialysed FBS. Once adhered, cells were serum-starved overnight. Agonist stimulation was performed by the addition of 5 μL agonist to the cells for 5 min (37° C.). Media was removed and 50 μL of lysis buffer added. After 15 min, a 4 μL sample was transferred to 384-well plate and 7 μL of detection mixture added. Plates were incubated for 2 h with gentle agitation in the dark and then read on a PHERAstar plate reader.
(§2) pEC50 and Emax figures were calculated from the resulting data for each receptor subtype.

[2] = biological target: T2, human muscarinic M4 receptor (Homo sapiens, UniProt P08173); assay: Alphascreen Surefire phospho-ERK1/2 functional assay, M4; assay type: cell-based; details: for EC50: phospho-ERK1/2, read-out: pEC50 M4 (converted); for Emax: CHO, read-out: M4 % Emax cf. ACh, CHO cells stably expressing human M4
T2 construct: expressed in transfected cells
T2 sequence (P08173 1-479): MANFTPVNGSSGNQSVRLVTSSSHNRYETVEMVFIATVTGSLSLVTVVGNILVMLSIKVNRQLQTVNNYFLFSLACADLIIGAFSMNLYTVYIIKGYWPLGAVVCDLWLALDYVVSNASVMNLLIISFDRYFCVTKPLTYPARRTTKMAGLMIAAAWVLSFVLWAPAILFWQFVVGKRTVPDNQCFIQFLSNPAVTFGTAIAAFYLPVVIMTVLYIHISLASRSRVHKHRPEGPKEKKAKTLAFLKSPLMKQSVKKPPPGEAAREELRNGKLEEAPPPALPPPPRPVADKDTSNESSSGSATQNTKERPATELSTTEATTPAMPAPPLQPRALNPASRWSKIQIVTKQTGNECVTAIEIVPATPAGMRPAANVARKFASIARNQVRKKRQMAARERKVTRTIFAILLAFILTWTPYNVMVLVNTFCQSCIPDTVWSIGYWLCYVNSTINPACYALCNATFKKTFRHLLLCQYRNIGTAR
Protocol: as §1, §2

[3] = CHO cells stably expressing human M4

CCOC(=O)NC1CCN(C2CCC3(CC2)C(=O)Nc2ccccc23)CC1 (single isomer, unassigned) [7-1 isomer 1]
M1 % Emax cf. ACh [1]: 112% | EC50 [1]: 0.257 µM | EC50 [2, 3]: 0.158 µM | Emax ([2]; Emax relative to ACh): 26%

CCOC(=O)N[C@H]1CCN(C2CCC3(CC2)C(=O)Nc2ccc(F)cc23)C1 (single isomer, unassigned) [2-8 isomer 1]
EC50 [1]: 0.0933 µM | Emax [1]: 59% | EC50 [2, 3]: > 20 µM | Emax ([2]; Emax relative to ACh): 10%

CCOC(=O)N[C@H]1CCN(C2CCC(C#N)(c3cccc(Cl)c3)CC2)C1 (single isomer, unassigned) [Example 1-10]
selectivity for the M1 receptor relative to the M4 receptor [1]: highly selective for the M1 receptor relative to the M4 receptor

CC#CCOC(=O)N1CCCN(C2CCC(C#N)(c3ccc(OC)cn3)CC2)CC1 (stereo not drawn) [Example 3-32, but-2-yn-1-yl 4-[4-cyano-4-(5-methoxypyridin-2-yl)cyclohexyl]-1,4-diazepane-1-carboxylate]
selectivity for the M1 receptor relative to the M4 receptor [1]: highly selective for the M1 receptor relative to the M4 receptor

C/C=C/C(=O)N1CCCN(C2CCC3(CC2)C(=O)Nc2ccccc23)CC1 (single isomer, unassigned) [4-4 isomer 2]
EC50 [1]: 0.257 µM | Emax [1]: 48% | EC50 [2, 3]: > 20 µM | Emax ([2]; Emax relative to ACh): 12%

Cc1ccc(C2(C#N)CCC(N[C@@H]3CC[C@H](c4nc(C(F)(F)F)no4)C3)CC2)nc1 (single isomer, unassigned) [28-2 Isomer 2]
EC50 [1]: 3.47 µM | Emax [1]: 40% | EC50 [2, 3]: 0.955 µM | Emax ([2]; Emax relative to ACh): 55%

Cc1ccc(C2(C#N)CCC(N3CCC4(CC(c5nc(C)no5)C4)C3)CC2)nc1 (single isomer, unassigned) [21-5 Isomer 2]
M1 % Emax cf. ACh [1]: 82% | EC50 [1]: 14.5 µM | M4 % Emax cf. ACh ([2]; CHO cells stably expressing human M4, Emax relative to ACh): 51% | EC50 [2, 3]: 1.26 µM

CCOC(=O)N1CCCN(C2CCC(C#N)(c3ccc(OC)cn3)CC2)CC1 (stereo not drawn) [Example 3-19, ethyl 4-[4-(5-methoxypyridin-2-yl)-4-cyanocyclohexyl]-1,4-diazepane-1-carboxylate]
selectivity for the M1 receptor relative to the M4 receptor [1]: highly selective for the M1 receptor relative to the M4 receptor

CCOC(=O)N[C@H]1CCN(C2CCC3(CC2)C(=O)Nc2ccc(OC)cc23)C1 (single isomer, unassigned) [Example 2-10]
selectivity for the M1 receptor relative to the M4 receptor [1]: highly selective for the M1 receptor relative to the M4 receptor

CCOC(=O)N[C@H]1CCN(C2CCC3(CC2)C(=O)Nc2ccc(C)cc23)C1 (single isomer, unassigned) [Example 2-5]
selectivity for the M1 receptor relative to the M4 receptor [1]: highly selective for the M1 receptor relative to the M4 receptor

CCOC(=O)N[C@H]1CCN(C2CCC(C#N)(c3ccc(F)cc3)CC2)C1 (single isomer, unassigned) [Example 1-4]
selectivity for the M1 receptor relative to the M4 receptor [1]: highly selective for the M1 receptor relative to the M4 receptor

CCOC(=O)N[C@H]1CCN(C2CCC(C#N)(c3ccccc3)CC2)C1 (single isomer, unassigned) [Example 1-1]
selectivity for the M1 receptor relative to the M4 receptor [1]: highly selective for the M1 receptor relative to the M4 receptor

C#CCOC(=O)N1CCCN(C2CCC(C#N)(c3ccc(OC)cn3)CC2)CC1 (stereo not drawn) [Example 3-31, prop-2-yn-1-yl 4-[4-cyano-4-(5-methoxypyridin-2-yl)cyclohexyl]-1,4-diazepane-1-carboxylate]
selectivity for the M1 receptor relative to the M4 receptor [1]: highly selective for the M1 receptor relative to the M4 receptor

CCOC(=O)N[C@H]1CCN(C2CCC3(CC2)C(=O)Nc2cc(F)ccc23)C1 (stereo partly drawn) [Example 2-7, ethyl [(3S)-1-(6′-fluoro-2′-oxo-1′,2′-dihydrospiro[cyclohexane-1,3′-indol]-4-yl)pyrrolidin-3-yl]carbamate]
selectivity for the M1 receptor relative to the M4 receptor [1]: highly selective for the M1 receptor relative to the M4 receptor

CCOC(=O)N[C@H]1CCN(C2CCC3(CC2)C(=O)Nc2ncc(Cl)cc23)C1 (single isomer, unassigned) [Example 2-17]
selectivity for the M1 receptor relative to the M4 receptor [1]: highly selective for the M1 receptor relative to the M4 receptor

CCOC(=O)N[C@H]1CCN(C2CCC3(CC2)C(=O)Nc2ccc(F)cc23)C1 (stereo partly drawn) [Example 2-8, ethyl [(3S)-1-(5′-fluoro-2′-oxo-1′,2′-dihydrospiro[cyclohexane-1,3′-indol]-4-yl)pyrrolidin-3-yl]carbamate]
selectivity for the M1 receptor relative to the M4 receptor [1]: highly selective for the M1 receptor relative to the M4 receptor

CCOC(=O)N[C@H]1CCN(C2CCC3(CC2)C(=O)Nc2c(C)cccc23)C1 (single isomer, unassigned) [Example 2-3]
selectivity for the M1 receptor relative to the M4 receptor [1]: highly selective for the M1 receptor relative to the M4 receptor

CCOC(=O)N1CCCN(C2CCC(C#N)(c3ccc(OCC)cn3)CC2)CC1 (stereo not drawn) [Example 3-20, ethyl 4-[4-cyano-4-(5-ethoxypyridin-2-yl)cyclohexyl]-1,4-diazepane-1-carboxylate]
selectivity for the M1 receptor relative to the M4 receptor [1]: highly selective for the M1 receptor relative to the M4 receptor

CCOC(=O)N1CCCN(C2CCC3(CC2)C(=O)Nc2ccc(OC)cc23)CC1 (stereo not drawn) [Example 4-12, ethyl 4-(5′-methoxy-2′-oxo-1′,2′-dihydrospiro[cyclohexane-1,3′-indol]-4-yl)-1,4-diazepane-1-carboxylate]
selectivity for the M1 receptor relative to the M4 receptor [1]: highly selective for the M1 receptor relative to the M4 receptor

CCOC(=O)N[C@H]1CCN(C2CCC(C#N)(c3cccc(F)c3)CC2)C1 (single isomer, unassigned) [Example 1-3]
selectivity for the M1 receptor relative to the M4 receptor [1]: highly selective for the M1 receptor relative to the M4 receptor

CCOC(=O)N[C@H]1CCN(C2CCC(C#N)(c3cccc(C)c3)CC2)C1 (single isomer, unassigned) [Example 1-9]
selectivity for the M1 receptor relative to the M4 receptor [1]: highly selective for the M1 receptor relative to the M4 receptor

CCOC(=O)N1CCCN(C2CCC3(CC2)C(=O)Nc2ccc(C)cc23)CC1 (stereo not drawn) [Example 4-7, ethyl 4-(5′-methyl-2′-oxo-1′,2′-dihydrospiro[cyclohexane-1,3′-indol]-4-yl)-1,4-diazepane-1-carboxylate]
selectivity for the M1 receptor relative to the M4 receptor [1]: highly selective for the M1 receptor relative to the M4 receptor

CCOC(=O)N1CCN(C2CCC(C#N)(c3ccccc3)CC2)CC(O)C1 (mixture of isomers) [3-26 mixture of isomers]
EC50 [1]: 0.0407 µM | Emax [1]: 85%

CCOC(=O)N[C@H]1CCN(C2CCC3(CC2)C(=O)Nc2ccccc23)C1 (single isomer, unassigned) [Example 2-1]
selectivity for the M1 receptor relative to the M4 receptor [1]: highly selective for the M1 receptor relative to the M4 receptor

CCOC(=O)N[C@H]1CCN(C2CCC3(CC2)C(=O)Nc2cc(C)ccc23)C1 (single isomer, unassigned) [Example 2-4]
selectivity for the M1 receptor relative to the M4 receptor [1]: highly selective for the M1 receptor relative to the M4 receptor

CCOC(=O)N1CCCN(C2CCC(c3nc(CC)c(C)[nH]3)CC2)CC1 (stereo not drawn) [Example 5-1, ethyl 4-[4-(4-ethyl-5-methyl-1H-imidazol-2-yl)cyclohexyl]-1,4-diazepane-1-carboxylate]
selectivity for the M1 receptor relative to the M4 receptor [1]: highly selective for the M1 receptor relative to the M4 receptor
